# pIC50: −log10 of the molar value. Several values for one entry are separate records, joined by “and”; a condition that tells them apart may be missing. Equal entries are not always repeated.
# System: 186277-243-T-J2-PDC complex spheroids, viability
# Test: Anticancer human tumor 186277-243-T-J2-PDC patient-derived colon adenocarcinoma cell line growth inhibition [RAS]
# Conditions: for viability, T/C: stronger effect = lower value; for pIC50: curve of first compound
# Outline: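 Tumour cells grown as complex spheroids with HUVEC endothelial cells and mesenchymal stem cells, treated with RAS pathway inhibitor combinations. Each agent spans half-log steps from near clinical Cmax, or 10 microM where Cmax is unknown.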
# [1] = second compound 0.0316 µM, first compound 0.0316 µM
# [2] = second compound 0.0316 µM, first compound 0.1 µM
# [3] = second compound 0.1 µM, first compound 0.0316 µM
# [4] = second compound 0.1 µM, first compound 0.1 µM
# [5] = second compound 0.316 µM, first compound 0.0316 µM
# [6] = second compound 0.316 µM, first compound 0.1 µM
# [7] = second compound 1 µM, first compound 0.0316 µM
# [8] = second compound 1 µM, first compound 0.1 µM
# 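Note: spheroids exposed to compounds for 7 days before viability read.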
smiles,measurement,setting,value
CC(C)n1nc(-c2ccc3oc(N)nc3c2)c2c(N)ncnc21,"viability, T/C",compound 0.000316 µM,107% [middle of 4 runs]
same,"viability, T/C",compound 0.001 µM,96.7% [middle of 4 runs]
same,"viability, T/C",compound 0.00316 µM,101% and 98% and 107% (2×)
same,"viability, T/C",compound 0.01 µM,92.9% [middle of 4 runs]
same,"viability, T/C",compound 0.1 µM,47.7% [middle of 4 runs]
C[C@@H](NC(=O)c1ncnc(N)c1Cl)c1ncc(C(=O)Nc2cc(C(F)(F)F)c(Cl)cn2)s1 + C=CC(=O)N1CCN(c2nc(OCC3CCCN3C)nc3c(F)c(-c4nc(N)cc(C)c4C(F)(F)F)c(Cl)cc23)C(C)C1,pIC50,second compound 0.00316 µM,< 5.00
same,pIC50,second compound 0.01 µM,< 5.00
same,pIC50,second compound 0.0316 µM,< 5.00
same,pIC50,second compound 0.1 µM,< 5.00
same,pIC50,second compound 0.316 µM,< 5.00
same,pIC50,second compound 1 µM,< 5.00
same,"viability, T/C","second compound 0.00316 µM, first compound 0.0316 µM",102%
same,"viability, T/C","second compound 0.00316 µM, first compound 0.1 µM",104%
same,"viability, T/C","second compound 0.00316 µM, first compound 0.316 µM",73.2%
same,"viability, T/C","second compound 0.00316 µM, first compound 1 µM",86.2%
same,"viability, T/C","second compound 0.00316 µM, first compound 3.16 µM",93.9%
same,"viability, T/C","second compound 0.00316 µM, first compound 10 µM",106%
same,"viability, T/C","second compound 0.01 µM, first compound 0.0316 µM",80.8%
same,"viability, T/C","second compound 0.01 µM, first compound 0.1 µM",83.8%
same,"viability, T/C","second compound 0.01 µM, first compound 0.316 µM",114%
same,"viability, T/C","second compound 0.01 µM, first compound 1 µM",89.5%
same,"viability, T/C","second compound 0.01 µM, first compound 3.16 µM",126%
same,"viability, T/C","second compound 0.01 µM, first compound 10 µM",71.2%
same,"viability, T/C",[1],104%
same,"viability, T/C",[2],113%
same,"viability, T/C","second compound 0.0316 µM, first compound 0.316 µM",84.3%
same,"viability, T/C","second compound 0.0316 µM, first compound 1 µM",97.4%
same,"viability, T/C","second compound 0.0316 µM, first compound 3.16 µM",122%
same,"viability, T/C","second compound 0.0316 µM, first compound 10 µM",72.2%
same,"viability, T/C",[3],86.4%
same,"viability, T/C",[4],103%
same,"viability, T/C","second compound 0.1 µM, first compound 0.316 µM",103%
same,"viability, T/C","second compound 0.1 µM, first compound 1 µM",95.1%
same,"viability, T/C","second compound 0.1 µM, first compound 3.16 µM",121%
same,"viability, T/C","second compound 0.1 µM, first compound 10 µM",97.3%
same,"viability, T/C",[5],103%
same,"viability, T/C",[6],92.3%
same,"viability, T/C","second compound 0.316 µM, first compound 0.316 µM",95.5%
same,"viability, T/C","second compound 0.316 µM, first compound 1 µM",87%
same,"viability, T/C","second compound 0.316 µM, first compound 3.16 µM",104%
same,"viability, T/C","second compound 0.316 µM, first compound 10 µM",84.7%
same,"viability, T/C",[7],104%
same,"viability, T/C",[8],82%
same,"viability, T/C","second compound 1 µM, first compound 0.316 µM",82.4%
same,"viability, T/C","second compound 1 µM, first compound 1 µM",92.1%
same,"viability, T/C","second compound 1 µM, first compound 3.16 µM",91.2%
same,"viability, T/C","second compound 1 µM, first compound 10 µM",89.8%
CC(C)n1nc(-c2ccc3oc(N)nc3c2)c2c(N)ncnc21 + C#Cc1c(F)ccc2cc(O)cc(-c3ncc4c(N5CC6CCC(C5)N6)nc(OCC56CCCN5CC(F)C6)nc4c3F)c12,pIC50,second compound 0.0316 µM,7.86
same,pIC50,second compound 0.1 µM,8.74
same,pIC50,second compound 0.316 µM,> 9.50
same,pIC50,second compound 1 µM,> 9.50
same,pIC50,second compound 3.16 µM,> 9.50
same,pIC50,second compound 10 µM,> 9.50
same,"viability, T/C","second compound 0.0316 µM, first compound 0.000316 µM",69.1%
same,"viability, T/C","second compound 0.0316 µM, first compound 0.001 µM",90.7%
same,"viability, T/C","second compound 0.0316 µM, first compound 0.00316 µM",58.6%
same,"viability, T/C","second compound 0.0316 µM, first compound 0.01 µM",51.7%
same,"viability, T/C",[1],44.2%
same,"viability, T/C",[2],25.9%
same,"viability, T/C","second compound 0.1 µM, first compound 0.000316 µM",63.1%
same,"viability, T/C","second compound 0.1 µM, first compound 0.001 µM",53.6%
same,"viability, T/C","second compound 0.1 µM, first compound 0.00316 µM",44.3%
same,"viability, T/C","second compound 0.1 µM, first compound 0.01 µM",37.8%
same,"viability, T/C",[3],19.9%
same,"viability, T/C",[4],7.3%
same,"viability, T/C","second compound 0.316 µM, first compound 0.000316 µM",26%
same,"viability, T/C","second compound 0.316 µM, first compound 0.001 µM",28.6%
same,"viability, T/C","second compound 0.316 µM, first compound 0.00316 µM",13.9%
same,"viability, T/C","second compound 0.316 µM, first compound 0.01 µM",12.1%
same,"viability, T/C",[5],7.95%
same,"viability, T/C",[6],3.56%
same,"viability, T/C","second compound 1 µM, first compound 0.000316 µM",18.2%
same,"viability, T/C","second compound 1 µM, first compound 0.001 µM",14.2%
same,"viability, T/C","second compound 1 µM, first compound 0.00316 µM",13.9%
same,"viability, T/C","second compound 1 µM, first compound 0.01 µM",6.42%
same,"viability, T/C",[7],5.57%
same,"viability, T/C",[8],2.65%
same,"viability, T/C","second compound 3.16 µM, first compound 0.000316 µM",13.7%
same,"viability, T/C","second compound 3.16 µM, first compound 0.001 µM",11.4%
same,"viability, T/C","second compound 3.16 µM, first compound 0.00316 µM",7.28%
same,"viability, T/C","second compound 3.16 µM, first compound 0.01 µM",4.66%
same,"viability, T/C","second compound 3.16 µM, first compound 0.0316 µM",4.51%
same,"viability, T/C","second compound 3.16 µM, first compound 0.1 µM",2.8%
same,"viability, T/C","second compound 10 µM, first compound 0.000316 µM",9.87%
same,"viability, T/C","second compound 10 µM, first compound 0.001 µM",6.96%
same,"viability, T/C","second compound 10 µM, first compound 0.00316 µM",8.48%
same,"viability, T/C","second compound 10 µM, first compound 0.01 µM",4.45%
same,"viability, T/C","second compound 10 µM, first compound 0.0316 µM",3.9%
same,"viability, T/C","second compound 10 µM, first compound 0.1 µM",1.75%
C[C@@H](NC(=O)c1ncnc(N)c1Cl)c1ncc(C(=O)Nc2cc(C(F)(F)F)c(Cl)cn2)s1 + CCn1c(-c2cccnc2C(C)OC)c2c3cc(ccc31)N1CCOC(CC(NC(=O)C(C(C)C)N(C)C(=O)C3(F)CCN(C(=O)C#CC(C)(C)N(C)C)CC3)C(=O)N3CCCC(N3)C(=O)OCC(C)(C)C2)C1,pIC50,second compound 0.000949 µM,< 5.00
same,pIC50,second compound 0.003 µM,< 5.00
same,pIC50,second compound 0.00949 µM,< 5.00
same,pIC50,second compound 0.03 µM,< 5.00
same,pIC50,second compound 0.0949 µM,< 5.00
same,pIC50,second compound 0.3 µM,< 5.00
same,"viability, T/C","second compound 0.000949 µM, first compound 0.0316 µM",103%
same,"viability, T/C","second compound 0.000949 µM, first compound 0.1 µM",85.1%
same,"viability, T/C","second compound 0.000949 µM, first compound 0.316 µM",87.7%
same,"viability, T/C","second compound 0.000949 µM, first compound 1 µM",96.6%
same,"viability, T/C","second compound 0.000949 µM, first compound 3.16 µM",104%
same,"viability, T/C","second compound 0.000949 µM, first compound 10 µM",80.5%
same,"viability, T/C","second compound 0.003 µM, first compound 0.0316 µM",91.5%
same,"viability, T/C","second compound 0.003 µM, first compound 0.1 µM",84.5%
same,"viability, T/C","second compound 0.003 µM, first compound 0.316 µM",90.7%
same,"viability, T/C","second compound 0.003 µM, first compound 1 µM",90.1%
same,"viability, T/C","second compound 0.003 µM, first compound 3.16 µM",92.9%
same,"viability, T/C","second compound 0.003 µM, first compound 10 µM",95.1%
same,"viability, T/C","second compound 0.00949 µM, first compound 0.0316 µM",101%
same,"viability, T/C","second compound 0.00949 µM, first compound 0.1 µM",95.3%
same,"viability, T/C","second compound 0.00949 µM, first compound 0.316 µM",93.1%
same,"viability, T/C","second compound 0.00949 µM, first compound 1 µM",105%
same,"viability, T/C","second compound 0.00949 µM, first compound 3.16 µM",94.6%
same,"viability, T/C","second compound 0.00949 µM, first compound 10 µM",82.6%
same,"viability, T/C","second compound 0.03 µM, first compound 0.0316 µM",93.8%
same,"viability, T/C","second compound 0.03 µM, first compound 0.1 µM",95.4%
same,"viability, T/C","second compound 0.03 µM, first compound 0.316 µM",89.2%
same,"viability, T/C","second compound 0.03 µM, first compound 1 µM",85.8%
same,"viability, T/C","second compound 0.03 µM, first compound 3.16 µM",95.7%
same,"viability, T/C","second compound 0.03 µM, first compound 10 µM",72.5%
same,"viability, T/C","second compound 0.0949 µM, first compound 0.0316 µM",102%
same,"viability, T/C","second compound 0.0949 µM, first compound 0.1 µM",116%
same,"viability, T/C","second compound 0.0949 µM, first compound 0.316 µM",104%
same,"viability, T/C","second compound 0.0949 µM, first compound 1 µM",113%
same,"viability, T/C","second compound 0.0949 µM, first compound 3.16 µM",110%
same,"viability, T/C","second compound 0.0949 µM, first compound 10 µM",76.3%
same,"viability, T/C","second compound 0.3 µM, first compound 0.0316 µM",109%
same,"viability, T/C","second compound 0.3 µM, first compound 0.1 µM",120%
same,"viability, T/C","second compound 0.3 µM, first compound 0.316 µM",114%
same,"viability, T/C","second compound 0.3 µM, first compound 1 µM",112%
same,"viability, T/C","second compound 0.3 µM, first compound 3.16 µM",103%
same,"viability, T/C","second compound 0.3 µM, first compound 10 µM",57%
